Results reported in PubChem BioAssay (NCI).
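Growth conditions: 96-well plates. Treatment: test compound, 48 hours, 5 concentrations. Analysis: linear interpolation between bracketing concentrations; unreached endpoints set to highest concentration. TGI marks complete inhibition of growth.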 Activity calls are given as the source filed them. Cut-off read from the data, not from the text of the source: active = GI50 below about 0.43 µM; inactive = the rest.

Assays:
Test in all cases: inhibition of tumour cell growth, NCI panel, 48 h
[1] = test system: U251 CNS
[2] = test system: MDA-MB-435
[3] = test system: ACHN renal
[4] = test system: OVCAR-8 ovarian
[5] = test system: DLD-1 colon
[6] = test system: A549 NSCLC
[7] = test system: CCRF-CEM leukemia
[8] = test system: HS 578T breast
[9] = test system: CAKI-1 renal
[10] = test system: SF-295 CNS
[11] = test system: NCI-H460 lung
[12] = test system: SNB-19 CNS
[13] = test system: SF-268 CNS
[14] = test system: UO-31 renal
[15] = test system: K-562 leukemia
[16] = test system: MCF7 breast
[17] = test system: NCI-H23 lung
[18] = test system: HOP-92 NSCLC
[19] = test system: SW-620 colon
[20] = test system: MOLT-4 leukemia
[21] = test system: EKVX NSCLC
[22] = test system: SNB-78 CNS
[23] = test system: KM12 colon
[24] = test system: PC-3 prostate
[25] = test system: OVCAR-5 ovarian
[26] = test system: MDA-MB-231 breast
[27] = test system: SF-539 CNS
[28] = test system: NCI-H226 lung
[29] = test system: NCI/ADR-RES ovarian
[30] = test system: KM20L2 colon
[31] = test system: IGROV1 ovarian
[32] = test system: UACC-257 melanoma
[33] = test system: T-47D breast
[34] = test system: COLO 205 colon
[35] = test system: SN12C renal
[36] = test system: DU-145 prostate
[37] = test system: SK-MEL-28 melanoma
[38] = test system: OVCAR-3 ovarian
[39] = test system: HT29 colon

## OCCNCN(CNCCO)c1nc(N(CNCCO)CNCCO)nc(N(CNCCO)CNCCO)n1
[1]
  outcome: inactive
[2]
  outcome: inactive
[3]
  outcome: inactive
[4]
  outcome: inactive
[5]
  TGI: 0.405 µM
[6]
  TGI: 0.257 µM
  outcome: inactive
[7]
  TGI: 0.0602 µM
[8]
  outcome: inactive
[9]
  outcome: inactive
[10]
  TGI: 0.147 µM
  outcome: inactive
[11]
  TGI: 0.354 µM
  outcome: inactive
[12]
  outcome: inactive
[13]
  outcome: inactive
[14]
  TGI: 0.25 µM
[15]
  TGI: 0.15 µM
[16]
  outcome: inactive
[17]
  outcome: inactive
[18]
  outcome: inactive
[19]
  outcome: inactive
[20]
  TGI: 0.205 µM
  outcome: inactive
[21]
  outcome: inactive
[22]
  TGI: 0.203 µM
[23]
  TGI: 0.55 µM
[24]
  outcome: inactive
[25]
  outcome: inactive
[26]
  outcome: inactive
[27]
  outcome: inactive
[28]
  outcome: inactive
[29]
  outcome: inactive
[30]
  TGI: 0.322 µM
[31]
  outcome: inactive
[32]
  outcome: inactive
[33]
  outcome: inactive
[34]
  TGI: 0.0877 µM
[35]
  outcome: inactive
[36]
  outcome: inactive
[37]
  outcome: inactive
[38]
  outcome: inactive
[39]
  outcome: inactive
